Reference: paper PMC10388311, “Innovative Strategy toward Mutant CFTR Rescue in Cystic Fibrosis: Design and Synthesis of Thiadiazole Inhibitors of the E3 Ligase RNF5” (Journal of Medicinal Chemistry, 2023)
“Also recorded” adds a separate entry of the source.

What was measured:
[1] = target: T1, recombinant truncated RNF5 (aa 1–117) (Homo sapiens, UniProt Q99942); test: MicroScale Thermophoresis (MST) binding check; conditions: RED-NHS labeled RNF5 (aa 1–117); compound at maximum concentration allowed by solubility (12: 100 M [sic])
T1 construct: human RNF5 protein (aa 1–117) truncated to exclude the transmembrane domains; GST (followed by TEV protease site) (N, cleaved yes); host or cells: Escherichia coli BL21(DE3)
Text: (§1) The bindings of compounds 12, 40, and 42 were initially evaluated by MicroScale Thermophoresis (MST) using a purified recombinant truncated form of RNF5 (aa 1–117), lacking the C-terminal transmembrane domains. The protein was covalently labeled with a red dye (NHS) on the primary amines (lysine residues). […] NMR experiments on the recombinant RNF5 form were further performed to test the direct binding of the three compounds to the protein with a more sensitive, label-free, independent approach. Analogs 12, 40, and 42 were tested at 50 μM in the absence and in the presence of 3 μM RNF5 (1–117) protein. […] Indeed, for all three compounds, the NMR signals of their methyls are present in the STD spectra, and in the WaterLOGSY spectra, their signals change from negative to positive in the presence of the protein, indisputably highlighting the formation of compound–protein binding events. […] It has to be noted that NMR is a very sensitive technique that allows detecting also compounds weakly binding to their target protein independent of the possible downstream biological effects. Indeed, we can speculate that compounds 40 and 42 may bind to RNF5 without inhibiting its ubiquitin ligase activity, thus not leading to mutant CFTR rescue. These compounds could even act as RNF5 activators, similar to analog-1.
A construct coding for human RNF5 protein (aa 1–117) truncated to exclude the transmembrane domains, with an N-terminal GST-tag followed by the recognition site for TEV protease (pET vector backbone), was purchased from CliniSciences. A similar construct was recently described in the work of Ruan et al.[44] […]
Purified RNF5 was labeled using a Monolith protein labeling kit RED-NHS 2nd generation (NanoTemper Technologies, München, Germany) following manufacturer’s instructions. Labeled protein (5 nM) was first tested in a pre-test assay for optimal fluorescence, absence of aggregation, and sticking to capillaries using MST buffer [PBS, 0.05% Tween-20, 0.1% PEG-8000, 1 μM ZnCl2] with or without 1 mM DTT. […]

[2] = target: T2, recombinant RNF5 (1–117) protein (Homo sapiens, UniProt Q99942); test: WaterLOGSY and STD NMR binding experiments; conditions: compound 50 μM, 3 μM RNF5 (1–117)
T2 construct: human RNF5 protein (aa 1–117) truncated to exclude the transmembrane domains; GST (followed by TEV protease site) (N, cleaved yes); host or cells: Escherichia coli BL21(DE3)
Text: as §1, with “Indeed, we can speculate that compounds 40 and 42 may bind to RNF5 without inhibiting its ubiquitin ligase activity, thus not leading to mutant CFTR rescue. These compounds could even act as RNF5 activators, similar to analog-1.” left out
All the NMR experiments were recorded at 298 K using a 5 mm CryoProbe QCI ^1H/^19F–^13C/^15N–D quadruple resonance, a shielded z-gradient coil, and an automatic sample changer SampleJet NMR system with temperature control. […] For all samples, a 1D ^1H NMR experiment was recorded, the water suppression was obtained using the standard NOESY (nuclear Overhauser effect spectroscopy) preset Bruker pulse sequence, with 64k data points, a spectral width (sw) of 30 ppm, 64 scans, acquisition time (aq) of 1.835 s, a relaxation delay (d1) of 4 s, and a mixing time of 10 ms. […] WaterLOGSY experiments were recorded with the same parameters used in solubility assays, but with a higher number of scans (512); STD experiments were recorded with 128 scans, with two on (0.7 and 1 ppm) and one off (−50 ppm) resonance spectra, a Gaussian-shaped train pulse of 50 ms each was employed, with a total saturation time of the protein envelope of 5, 3, 2, 1.5, 1, or 0.5 s. […]

T1 sequence (Q99942 1-117): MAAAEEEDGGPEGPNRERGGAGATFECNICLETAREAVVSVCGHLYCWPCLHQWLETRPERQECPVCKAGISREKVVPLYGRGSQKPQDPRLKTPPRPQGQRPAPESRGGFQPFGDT
T2 sequence (Q99942 1-117): as above

Row | Structure (SMILES) | direct binding to RNF5 by MST (binding check) [1] | binding to RNF5 by WaterLOGSY and STD NMR [2]
1 | Cc1ns/c(=N\c2ccccn2)n1Cc1ccccc1 [Compound 42, (Z)-4-Benzyl-3-methyl-N-(pyridin-2-yl)-1,2,4-thiadiazol-5(4H)-imine] | observed only for compound 12 | bind the recombinant RNF5 protein
2 | Cc1ns/c(=N\C(=N\c2ccccc2)c2ccccc2)n1Cc1ccc(C(=O)O)cc1 [Compound 12, 4-(((Z)-3-Methyl-5-(((E)-phenyl(phenylimino)methyl)imino)-1,2,4-thiadiazol-4(5H)-yl)methyl)benzoic Acid] | compound 12 is binding to RNF5; also recorded: evidence of direct binding | bind the recombinant RNF5 protein
3 | Cc1ns/c(=N\C(=N\c2ccncc2)c2ccccc2)n1Cc1ccccc1 [Compound 40, (E)-N-((Z)-4-Benzyl-3-methyl-1,2,4-thiadiazol-5(4H)-ylidene)-N′-(pyridin-4-yl)benzimidamide] | observed only for compound 12 | bind the recombinant RNF5 protein
